The values that follow come from ChEMBL document CHEMBL1150252, “Heteroaromatic ester inhibitors of hepatitis A virus 3C proteinase: Evaluation of mode of action” (Bioorg Med Chem, 2008).

Test [1] has as its system Hepatovirus A. In words: Inhibition of hepatitis A virus 3C proteinase at 10 uM by microplate assay.
The subject of test [2] is Hepatovirus A. In words: Inhibition of hepatitis A virus 3C proteinase at 1 uM by microplate assay.
Test [3] concerns Hepatovirus A. Kind of test: Inhibition of hepatitis A virus 3C proteinase at 0.25 uM by microplate assay.
The nature of test [4]: Inhibition of hepatitis A virus 3C proteinase by microplate assay. Also on record: species or system Hepatovirus A.
For test [5], the system named is Hepatovirus A. Kind of test: Activity of hepatitis A virus 3C proteinase assessed as compound hydrolysis by HPLC.
Test [6] relates to Hepatovirus A. In words: Ratio of Kcat to Km of hepatitis A virus 3C proteinase.

With `O=C(Oc1cncc(Cl)c1)c1cnc2cc(C(F)(F)F)ccc2c1O`, in the test on Hepatovirus A [1], the inhibition is less than 10%. For the molecule `O=C(Oc1cncc(Cl)c1)c1cnccn1`, the inhibition in the test with Hepatovirus A [1] is 22%. For `NS(=O)(=O)c1ccc(C(=O)Oc2cncc(Cl)c2)cc1`, the inhibition is 64% in the test on Hepatovirus A [1], 57% with Hepatovirus A [2] and less than 10% in the test on Hepatovirus A [3]. As to `O=C(Oc1cncc(Cl)c1)c1cc2ccccc2[nH]1`, the inhibition was 80% in the test on Hepatovirus A [1] and 58% in the test on Hepatovirus A [2]. As to `CNc1ccc(C(=O)Oc2cncc(Cl)c2)cc1`, the results for the inhibition in the test on Hepatovirus A [1] and with Hepatovirus A [2] were 82% and less than 10%, respectively. `O=C(Oc1cncc(Cl)c1)c1ccco1` registered an IC50 in test [4] of 338 nM. Further, the inhibition in the test on Hepatovirus A [1] was greater than 90%; in the test with Hepatovirus A [2], greater than 90%; in the test with Hepatovirus A [3] it was 49%. Besides, the Km in the test with Hepatovirus A [5] is 0.24 µM. Also, the kcat in the test on Hepatovirus A [5] was found to be 110 ×10⁻⁵ /s. Also, the kcat/Km in the test on Hepatovirus A [6] was found to be 4.6 ×10³ /M/s. `O=C(Oc1cncc(Cl)c1)c1cc2ccccc2oc1=O` had an inhibition in the test on Hepatovirus A [1] of 75%.

In the case of `O=C(Oc1cncc(Br)c1)c1ccco1`, the IC50 in test [4] came out at 53 nM. The values for the inhibition with Hepatovirus A [2] and in the test on Hepatovirus A [3] were greater than 90% and 87%, respectively. For the same molecule, the Km in the test with Hepatovirus A [5] worked out at 0.12 µM. In addition, in the test with Hepatovirus A [5], the kcat came to 119 ×10⁻⁵ /s. The kcat/Km with Hepatovirus A [6] was 10 ×10³ /M/s. Turning to `O=C(Oc1cncc(Cl)c1)c1ccc2c(c1)OCO2`, the inhibition was greater than 90% in the test with Hepatovirus A [1] and 11% with Hepatovirus A [2].

With `O=C(Oc1cncc(Cl)c1)c1cccc2ccccc12`, the inhibition in the test on Hepatovirus A [1] is greater than 90%; with Hepatovirus A [2], 30%. For `O=C(Oc1cncc(Cl)c1)c1ccc2[nH]cnc2c1`, the inhibition came out at 82% with Hepatovirus A [1], 75% with Hepatovirus A [2] and 32% in the test with Hepatovirus A [3]. Take `O=C(Oc1cncc(Cl)c1)c1ccc2[nH]nnc2c1`: the inhibition in the test with Hepatovirus A [1] was greater than 90%. For `O=C(Nc1ccc(F)cn1)c1cccs1`, in the test on Hepatovirus A [1], the inhibition is less than 10%. With `O=C(Nc1ccncc1)c1cccs1`, the inhibition with Hepatovirus A [1] is less than 10%.

In the case of `O=C(Nc1ccc(Cl)cn1)c1cccs1`, the inhibition in the test with Hepatovirus A [1] is less than 10%.

For `COc1ccc(C(=O)Oc2cncc(Cl)c2)cc1`, the inhibition in the test with Hepatovirus A [1] was 85%.

`O=C(Oc1cncc(Cl)c1)c1ccc2[nH]ccc2c1`: the inhibition worked out at 87% in the test with Hepatovirus A [1], 60% with Hepatovirus A [2] and 22% with Hepatovirus A [3]. Consider `O=C(Oc1cncc(Cl)c1)c1c[nH]c2ccccc12`, for which the inhibition in the test with Hepatovirus A [1] was 13%.

Regarding `O=C(Oc1cncc(Cl)c1)c1ccc(-c2ccccc2C(F)(F)F)o1`, the inhibition was greater than 90% with Hepatovirus A [1] and less than 10% in the test on Hepatovirus A [3]. In the test on Hepatovirus A [1], `Cc1ccc(OC(=O)c2cccs2)c([N+](=O)[O-])n1` gave an inhibition of 14%. Regarding `O=C(Oc1cncc(Cl)c1)c1cscn1`, the values for the inhibition in the test on Hepatovirus A [1], in the test on Hepatovirus A [2] and with Hepatovirus A [3] were greater than 90%, 85% and 37%, respectively. As to `COc1cccc(C(=O)Oc2cncc(Cl)c2)c1`, the results for the inhibition in the test on Hepatovirus A [1] and in the test with Hepatovirus A [2] were greater than 90% and 50%, respectively. For the molecule `O=C(Oc1cncc(Cl)c1)c1ccncc1`, the inhibition in the test on Hepatovirus A [1] is 37%; in the test with Hepatovirus A [2] it was 34%. As for `O=C(Oc1cccc(Cl)n1)c1cccs1`, the inhibition with Hepatovirus A [1] was determined as 16%. `O=C(Oc1ccc(Cl)nc1)c1cccs1` had an inhibition in the test with Hepatovirus A [1] of 25%.

In the case of `CCN(CC)c1ccc(C(=O)Oc2cncc(Cl)c2)cc1`, in the test with Hepatovirus A [1], the inhibition came to 64%. Take `O=C(Oc1cncc(Cl)c1)c1cc2ccccc2s1`: the inhibition with Hepatovirus A [1] was greater than 90%; with Hepatovirus A [2] it was 47%. For the molecule `O=C(Oc1cncc(Cl)c1)c1c[nH]cn1`, the inhibition is 33% in the test with Hepatovirus A [1], 47% in the test with Hepatovirus A [2] and 34% in the test on Hepatovirus A [3]. `O=C(Oc1cccnc1Cl)c1cccs1` came in with an inhibition in the test on Hepatovirus A [1] of 11%. On to `O=C(Oc1cncc(Cl)c1)c1ccoc1`, for which, in the test with Hepatovirus A [1], the inhibition was greater than 90%. As for `O=C(Oc1cncc(Cl)c1)c1ccccc1[N+](=O)[O-]`, the inhibition in the test with Hepatovirus A [1] was greater than 90%; in the test on Hepatovirus A [2] it was 24%. Regarding `Cc1ccccc1C(=O)Oc1cncc(Cl)c1`, the inhibition in the test on Hepatovirus A [1] came out at 82%.

`O=C(Oc1cncc(Cl)c1)c1ccc(-c2cc(C(F)(F)F)ccc2Cl)o1`: the inhibition with Hepatovirus A [1] was determined as 76%; with Hepatovirus A [2], 36%. With `O=C(Oc1cncc(Cl)c1)C1CCCCC1`, the inhibition came out at 81% with Hepatovirus A [1] and 32% in the test on Hepatovirus A [2]. With `O=C(/C=C/c1ccco1)Oc1cncc(Cl)c1`, 140 nM corresponded to half-maximal inhibition in test [4] (IC50). Besides, the inhibition in the test with Hepatovirus A [1] is 83%; with Hepatovirus A [2], greater than 90%; in the test with Hepatovirus A [3], 43%. The Km in the test with Hepatovirus A [5] amounted to 0.18 µM. Also, the kcat in the test on Hepatovirus A [5] came out at 25 ×10⁻⁵ /s. Further, the kcat/Km in the test on Hepatovirus A [6] was found to be 1.4 ×10³ /M/s. As to `Cc1onc(-c2ccccc2)c1C(=O)Oc1cncc(Cl)c1`, the inhibition in the test on Hepatovirus A [1] and in the test on Hepatovirus A [3] was less than 10% in each case.

On to `O=C(Oc1cncc(Cl)c1)c1ccccc1Cl`, for which the results for the inhibition in the test on Hepatovirus A [1], with Hepatovirus A [2] and with Hepatovirus A [3] were greater than 90%, 67% and 23%, respectively. For the molecule `O=C(Oc1ccncc1)c1cccs1`, the inhibition with Hepatovirus A [1] is less than 10%; with Hepatovirus A [2] it was 10%. Regarding `O=C(Oc1ccccn1)c1cccs1`, the inhibition was determined as 89% in the test on Hepatovirus A [1] and 8% in the test on Hepatovirus A [2]. On to `O=C(Oc1ccco1)c1cccnc1`, for which the inhibition with Hepatovirus A [1] is greater than 90%.

In the case of `O=C(Oc1cncc(Cl)c1)c1cc2ccccc2o1`, the figures for the inhibition in the test on Hepatovirus A [1], in the test with Hepatovirus A [2] and in the test on Hepatovirus A [3] were greater than 90%, greater than 90% and less than 10%, respectively. Take `O=C(Oc1cccnc1)c1cccs1`: the results for the inhibition in the test with Hepatovirus A [1] and in the test with Hepatovirus A [2] were 83% and 21%, respectively. As to `O=C(Oc1cncc(Cl)c1)c1cc(F)c(Cl)nc1Cl`, the results for the inhibition in the test with Hepatovirus A [1] and in the test with Hepatovirus A [2] were 44% and 19%, respectively. Take `O=C(Oc1cncc(Cl)c1)c1cc([N+](=O)[O-])[nH]n1`: in test [4], inhibition was half-maximal at 250 nM (IC50). The inhibition with Hepatovirus A [1] was determined as 54%; in the test on Hepatovirus A [2], 69%; in the test with Hepatovirus A [3], 53%. Take `O=C(Oc1cccc(Cl)c1)c1ccco1`: in the test on Hepatovirus A [1], the inhibition was 11%. Regarding `O=C(Nc1cccnc1Cl)c1cccs1`, in the test on Hepatovirus A [1], the inhibition was less than 10%. Still for that read-out and setting: the figure for `O=C(Oc1cncc(Cl)c1)c1ccc(-c2ccc(Cl)cc2[N+](=O)[O-])o1` is 40%; for `Cc1ccc(OC(=O)c2cccs2)cn1` it is 23%; for `COc1ccc(C(=O)Oc2cncc(Cl)c2)cc1OC` it is 59%. As for `O=C(/C=C/c1ccccc1)Oc1cncc(Cl)c1`, the figures for the inhibition in the test on Hepatovirus A [1] and in the test on Hepatovirus A [2] were greater than 90% and 53%, respectively. `O=S(=O)(Nc1cccnc1)c1cccs1` showed an inhibition in the test with Hepatovirus A [1] of less than 10%. Still for that read-out and setting: the figure for `O=C(Nc1cccnc1)c1cccs1` is less than 10%. As for `Cc1ccc(C(=O)Oc2cncc(Cl)c2)s1`, the inhibition with Hepatovirus A [1] was greater than 90%; in the test with Hepatovirus A [3], 24%.

Consider `Clc1cncc(OCc2ccco2)c1`, for which, in the test with Hepatovirus A [1], the inhibition was less than 10%.

As for `Cc1cccc(C(=O)Oc2cncc(Cl)c2)c1`, the inhibition with Hepatovirus A [1] stood at 63%; with Hepatovirus A [2] it was 32%. In test [4], `O=C(Oc1cncc(Cl)c1)c1ccc(Br)o1` showed an IC50 of 1200 nM. Besides, the results for the inhibition in the test on Hepatovirus A [1] and in the test with Hepatovirus A [3] were greater than 90% and 54%, respectively. Consider `O=C(Oc1cncc(Cl)c1)c1ccc(-c2ccccc2[N+](=O)[O-])o1`, for which the inhibition with Hepatovirus A [1] was 37%. In the case of `O=C(Oc1cncc(Cl)c1)c1ccc[nH]1`, the inhibition was 92% in the test on Hepatovirus A [1], less than 10% in the test with Hepatovirus A [2] and less than 10% with Hepatovirus A [3].

`CN(C)c1ccc(C(=O)Oc2cncc(Cl)c2)cc1`: the inhibition in the test on Hepatovirus A [1] is greater than 90%; in the test with Hepatovirus A [2], greater than 90%; in the test with Hepatovirus A [3], 20%. With `COc1ccccc1C(=O)Oc1cncc(Cl)c1`, the inhibition was 85% in the test on Hepatovirus A [1], 57% in the test on Hepatovirus A [2] and less than 10% in the test with Hepatovirus A [3].

Consider `Cc1ncccc1OC(=O)c1cccs1`, for which the inhibition in the test on Hepatovirus A [1] and with Hepatovirus A [2] was less than 10% each time. As to `Cc1ccc(C(=O)Oc2cncc(Cl)c2)cc1`, the inhibition stood at 77% with Hepatovirus A [1] and 70% in the test with Hepatovirus A [2]. For the molecule `O=C(Oc1cncc(Cl)c1)c1ccc2ncsc2c1`, the inhibition is 74% in the test on Hepatovirus A [1], 54% in the test with Hepatovirus A [2] and 27% in the test on Hepatovirus A [3].

With `O=C(Oc1cncc(Cl)c1)c1ccc(F)cc1`, the results for the inhibition with Hepatovirus A [1] and with Hepatovirus A [2] were greater than 90% and 45%, respectively. The corresponding values for `O=C(Oc1cncc(Cl)c1)c1ccc2ccccc2c1` are 23% and 35%. `O=C(Nc1ccccn1)c1cccs1` returned an inhibition in the test with Hepatovirus A [1] of less than 10%. On to `O=C(OCc1cncc(Br)c1)c1ccco1`, for which, in the test with Hepatovirus A [1], the inhibition worked out at 67%. With `O=C(Oc1cncc(Cl)c1)c1ccc(Cl)cc1O`, the inhibition is greater than 90% with Hepatovirus A [1], 59% in the test with Hepatovirus A [2] and 10% in the test with Hepatovirus A [3]. As to `O=C(Oc1cncc(Cl)c1)c1cccc(Cl)c1`, the inhibition stood at 29% in the test with Hepatovirus A [1] and 50% in the test on Hepatovirus A [2]. Consider `Nc1ccc(C(=O)Oc2cncc(Cl)c2)cc1`, for which the inhibition is greater than 90% in the test with Hepatovirus A [1] and 26% in the test with Hepatovirus A [2]. For `O=C(Cc1cccnc1)c1cccs1`, the inhibition in the test on Hepatovirus A [1] came out at 10%. For the molecule `Cc1cccc(OC(=O)c2cccs2)n1`, the figures for the inhibition in the test with Hepatovirus A [1] and in the test on Hepatovirus A [2] were 91% and less than 10%, respectively. With `O=C(Oc1cncc(Cl)c1)c1ccc(-c2ccccc2)cc1`, the values for the inhibition in the test on Hepatovirus A [1] and in the test with Hepatovirus A [2] were 39% and 23%, respectively.

For `Cc1ccsc1C(=O)Oc1cncc(Cl)c1`, the inhibition with Hepatovirus A [1] is less than 10%. As to `O=C(Oc1cncc(Cl)c1)c1ccccc1`, the inhibition with Hepatovirus A [1] is greater than 90%; with Hepatovirus A [2], greater than 90%; with Hepatovirus A [3], less than 10%.

In the case of `Cc1ccc(OC(=O)c2cccs2)nc1`, the inhibition with Hepatovirus A [1] came to 12%.

With `O=C(Oc1cncc(Cl)c1)c1cn[nH]c1`, the inhibition with Hepatovirus A [1] is 56%; with Hepatovirus A [2], 21%.

With `O=C(Oc1cncc(Cl)c1)c1ccc(-c2ccc(Cl)cc2)o1`, the figures for the inhibition with Hepatovirus A [1] and in the test with Hepatovirus A [3] were greater than 90% and 36%, respectively.
